# From patent US4916065A (priority 1988, dated 1990)
# Read-outs that look alike come from different tables or passages of the source.
# Assays:
# [1] = tested on: Cryptococcus neoformans D49; assay: Antifungal MIC, Sabouraud dextrose agar; assay type: cell-based
# [2] = tested on: Cryptococcus neoformans IAM4514; assay: Antifungal MIC, Sabouraud dextrose agar; assay type: cell-based
# [3] = tested on: Aspergillus flavus FA21436; assay: Antifungal MIC, Sabouraud dextrose agar; assay type: cell-based
# [4] = tested on: Fusarium moniliforme A2284; assay: Antifungal MIC, Sabouraud dextrose agar; assay type: cell-based; details: Fusarium verticillioides
# Piricularia oryzae D91 = assay: microbe, parasite or virus in culture; assay type: cell-based
# [5] = tested on: Trichophyton mentagrophytes #4329; assay: Antifungal MIC, Sabouraud dextrose agar; assay type: cell-based
# [6] = tested on: Petriellidium boydii IF08073; assay: Antifungal MIC, Sabouraud dextrose agar; assay type: cell-based; details: Scedosporium boydii
# Mucor spinosus IF05317 = assay: Antifungal MIC, Sabouraud dextrose agar; assay type: cell-based
# [7] = tested on: Staphylococcus aureus 209P; assay: Antibacterial MIC, serial agar dilution; assay type: cell-based; details: aerobic, nutrient agar
# [8] = tested on: Staphylococcus aureus Smith; assay: Antibacterial MIC, serial agar dilution; assay type: cell-based; details: aerobic, nutrient agar
# [9] = tested on: Staphylococcus aureus A20234; assay: Antibacterial MIC, serial agar dilution; assay type: cell-based; details: aerobic, nutrient agar, kanamycin-resistant
# [10] = tested on: Staphylococcus aureus BX1633; assay: Antibacterial MIC, serial agar dilution; assay type: cell-based; details: aerobic, nutrient agar, ampicillin-resistant
# [11] = tested on: Staphylococcus aureus A15097; assay: Antibacterial MIC, serial agar dilution; assay type: cell-based; details: aerobic, nutrient agar, methicillin-resistant
# [12] = tested on: Staphylococcus epidermidis A22152; assay: Antibacterial MIC, serial agar dilution; assay type: cell-based; details: aerobic, nutrient agar, kanamycin-resistant
# [13] = tested on: Enterococcus faecalis A9612; assay: Antibacterial MIC, serial agar dilution; assay type: cell-based; details: aerobic, nutrient agar
# Micrococcus luteus 1001 = assay: Antibacterial MIC, serial agar dilution; assay type: cell-based; details: aerobic, nutrient agar
# Escherichia coli NIHJ = assay: Antibacterial MIC, serial agar dilution; assay type: cell-based; details: aerobic, nutrient agar
# Escherichia coli Juhl = assay: Antibacterial MIC, serial agar dilution; assay type: cell-based; details: aerobic, nutrient agar
# Escherichia coli A20665 = assay: Antibacterial MIC, serial agar dilution; assay type: cell-based; details: aerobic, nutrient agar, kanamycin-resistant
# Escherichia coli A9624 = assay: Antibacterial MIC, serial agar dilution; assay type: cell-based; details: aerobic, nutrient agar, kanamycin-resistant
# [14] = tested on: Escherichia coli A20341-1; assay: Antibacterial MIC, serial agar dilution; assay type: cell-based; details: A203411, aerobic, nutrient agar, ampicillin-resistant
# [15] = tested on: Enterobacter cloacae A9659; assay: Antibacterial MIC, serial agar dilution; assay type: cell-based; details: aerobic, nutrient agar
# [16] = tested on: Klebsiella pneumoniae D11; assay: Antibacterial MIC, serial agar dilution; assay type: cell-based; details: aerobic, nutrient agar
# [17] = tested on: Klebsiella pneumoniae A20680; assay: Antibacterial MIC, serial agar dilution; assay type: cell-based; details: aerobic, nutrient agar, kanamycin-resistant
# [18] = tested on: Pseudomonas aeruginosa A9930; assay: Antibacterial MIC, serial agar dilution; assay type: cell-based; details: aerobic, nutrient agar
# [19] = tested on: Serratia marcescens A20222; assay: Antibacterial MIC, serial agar dilution; assay type: cell-based; details: aerobic, nutrient agar
# [20] = tested on: Clostridium perfringens A9635; assay: microbe, parasite or virus in culture; assay type: cell-based
# [21] = tested on: Propionibacterium acnes A21933; assay: Antibacterial MIC, serial agar dilution; assay type: cell-based; details: Cutibacterium acnes, anaerobic, GAM agar
# [22] = tested on: Peptostreptococcus anaerobius A21905; assay: Antibacterial MIC, serial agar dilution; assay type: cell-based
# [23] = tested on: Bacteroides fragilis A22534; assay: Antibacterial MIC, serial agar dilution; assay type: cell-based
# Canidia albicans IAM4888 = assay: Antifungal MIC, Sabouraud dextrose agar; assay type: cell-based
# Canidia albicans A9540 = assay: Antifungal MIC, Sabouraud dextrose agar; assay type: cell-based
# [24] = tested on: Aspergillus fumigatus IAM2034; assay: Antifungal MIC, Sabouraud dextrose agar; assay type: cell-based
# [25] = tested on: Trichophyton mentagrophytes D155; assay: Antifungal MIC, Sabouraud dextrose agar; assay type: cell-based
# [26] = tested on: aerobic and anaerobic bacteria; assay type: cell-based; details: for activity against Gram-negative organisms: versus Gram-positive
# fungi = assay: In vitro antifungal activity, overall spectrum; assay type: cell-based; details: all organisms tested except Cryptococcus neoformans
# B16-F10 = assay: In vitro cytotoxicity; assay type: cell-based, murine; details: Mus musculus, 72 hours, neutral red, 540 nm
# Moser = assay: In vitro cytotoxicity; assay type: cell-based; details: Homo sapiens; 72 hours, neutral red, 540 nm
# P388 leukemia = assay: Antitumor activity against P388 leukemia (ip); assay type: in vivo, mice; details: for Body weight change on day 4 / MST (median survival time) / T/C: QD × 3, ip; for maximum T/C value: P388, ip, QD × 3
# Solubility = assay type: physicochemical
# Proteus mirabilis A9554 = assay: Antibacterial MIC, serial agar dilution; assay type: cell-based; details: aerobic, nutrient agar
# [27] = tested on: Staphylococcus aureus Smith; assay type: in vivo, mice; details: single, im; for No. of survivor/tested: 5 days
# Procedure: Mice were challenged intraperitoneally with 100 times the lethal dose of the pathogen in a 5% suspension of hog gastric mucin (American laboratory, Omaha, Nebr.). BU-3420T was administered to mice intramuscularly just before the bacterial challenge.
# P388 = assay: In vitro cytotoxicity; assay type: cell-based, murine; details: Mus musculus, 72 hours, viable cell count
# Procedure: (§1) On the other hand, the cytotoxic activities against P388 and P388/VCR cells were determined by counting the number of viable cells.
# P388/VCR = assay: In vitro cytotoxicity
# Procedure: as §1
# HCT-116 = assay: In vitro cytotoxicity; assay type: cell-based; details: Homo sapiens, 72 hours, neutral red, 540 nm
# [28] = tested on: DNA synthesis in L1210 cells; assay: Inhibition of macromolecule synthesis in L1210 leukemia; assay type: cell-based; details: Mus musculus; 3H-thymidine, L1210, 15 min + 60 min, 37° C.
# [29] = tested on: RNA synthesis in L1210 cells; assay: as above; assay type: cell-based; details: Mus musculus; 14C-uridine, L1210, 15 min + 60 min, 37° C.
# [30] = tested on: Protein synthesis in L1210 cells; assay: as above; assay type: cell-based; details: Mus musculus; 3H-leucine, L1210, 15 min + 60 min, 37° C.
structure (smiles),measurement,setting,value
"C[C@@H]1[C@H](O)[C@@H](C)/C=C/C=C/C=C/C=C/C=C/C=C/C=C/[C@H](O[C@@H]2O[C@H](C)[C@@H](O)[C@H](N)[C@@H]2O)C[C@@H]2O[C@](O)(C[C@@H](O)C[C@@H](O)[C@H](O)CC[C@@H](O)C[C@@H](O)CC(=O)O[C@H]1C)C[C@H](O)[C@H]2C(=O)O [Amphotericin B, reference compound]",MIC,[1],< 0.2 µg/mL
same,MIC,[2],< 0.2 µg/mL
same,MIC,[3],3.1 µg/mL
same,MIC,[4],12.5 µg/mL
same,MIC,Piricularia oryzae D91,3.1 µg/mL
same,MIC,[5],3.1 µg/mL
same,MIC,[6],> 100 µg/mL
same,MIC,Mucor spinosus IF05317,0.8 µg/mL
COC1=C(C(=O)O)C(C)C23OC24c2cc(OC(C)=O)c5c(c2NC3C#C/C=C\C#CC14)C(=O)c1c(OC(C)=O)ccc(OC(C)=O)c1C5=O (centres unmarked) [BU-3420T acetate],MIC,[7],0.0063 ng/mL
same,MIC,[8],0.0063 ng/mL
same,MIC,[9],0.0063 ng/mL
same,MIC,[10],0.0063 ng/mL
same,MIC,[11],0.0063 ng/mL
same,MIC,[12],0.013 ng/mL
same,MIC,[13],0.1 ng/mL
same,MIC,Micrococcus luteus 1001,0.2 ng/mL
same,MIC,Escherichia coli NIHJ,0.0063 µg/mL
same,MIC,Escherichia coli Juhl,0.0063 µg/mL
same,MIC,Escherichia coli A20665,0.013 µg/mL
same,MIC,Escherichia coli A9624,0.0063 µg/mL
same,MIC,[14],0.025 µg/mL
same,MIC,[15],0.0063 µg/mL
same,MIC,[16],0.8 ng/mL
same,MIC,[17],0.013 µg/mL
same,MIC,[18],6.3 ng/mL
same,MIC,[19],6.3 ng/mL
same,MIC,[20],0.013 µg/mL
same,MIC,[21],0.013 µg/mL
same,MIC,[22],0.025 µg/mL
same,MIC,[23],0.05 µg/mL
same,MIC,Canidia albicans IAM4888,0.4 µg/mL
same,MIC,Canidia albicans A9540,0.2 µg/mL
same,MIC,[1],0.8 µg/mL
same,MIC,[2],0.8 µg/mL
same,MIC,[24],< 0.05 µg/mL
same,MIC,[3],0.4 µg/mL
same,MIC,[4],< 0.05 µg/mL
same,MIC,[25],0.4 µg/mL
same,MIC,[5],0.8 µg/mL
same,MIC,Mucor spinosus IF05317,0.2 µg/mL
same,activity against Gram-negative organisms,[26],a little less susceptible
same,activity against Gram-positive aerobic bacteria,[26],intensely potent activity
same,activity against anaerobic Gram-positive and negative bacteria versus clindamycin,[26],much more active than clindamycin
same,activity against certain kanamycin- and clindamycin-resistant bacteria,[26],susceptible to both compounds
same,antifungal activity versus amphotericin B,fungi,significantly more potent than amphotericin B
same,IC50,B16-F10,0.7 ng/mL
same,IC50,Moser,0.003 ng/mL
same,Body weight change on day 4,P388 leukemia; 0.5 mg/kg/day,-0.5 g
same,MST (median survival time),P388 leukemia; 0.5 mg/kg/day,13.5 days
same,T/C,P388 leukemia; 0.5 mg/kg/day,135%
same,Body weight change on day 4,P388 leukemia; 1.0 mg/kg/day,-0.8 g
same,MST (median survival time),P388 leukemia; 1.0 mg/kg/day,11.0 days
same,T/C,P388 leukemia; 1.0 mg/kg/day,110%
same,maximum T/C value,P388 leukemia,135%
same,solubility in organic solvents compared with BU-3420T,"Solubility; organic solvents such as chloroform, methanol and ethanol",much improved solubility
COC1=C(C(=O)O)C(C)C23OC24c2cc(O)c5c(c2NC3C#C/C=C\C#CC14)C(=O)c1c(O)ccc(O)c1C5=O (centres unmarked) [BU-3420T],MIC,[7],0.013 ng/mL
same,MIC,[12],0.05 ng/mL
same,MIC,[13],0.4 ng/mL
same,MIC,Micrococcus luteus 1001,0.8 ng/mL
same,MIC,Escherichia coli NIHJ,0.05 µg/mL
same,MIC,Escherichia coli Juhl,0.05 µg/mL
same,MIC,Escherichia coli A20665,0.05 µg/mL
same,MIC,Escherichia coli A9624,0.05 µg/mL
same,MIC,[15],0.05 µg/mL
same,MIC,Proteus mirabilis A9554,0.013 µg/mL
same,MIC,[21],0.013 µg/mL
same,MIC,Canidia albicans IAM4888,12.5 µg/mL
same,MIC,[1],12.5 µg/mL
same,MIC,[2],12.5 µg/mL
same,MIC,[25],12.5 µg/mL
same,MIC,[5],12.5 µg/mL
same,MIC,Mucor spinosus IF05317,12.5 µg/mL
same,activity against Gram-negative organisms,[26],a little less susceptible
same,activity against Gram-positive aerobic bacteria,[26],intensely potent activity
same,activity against anaerobic Gram-positive and negative bacteria versus clindamycin,[26],much more active than clindamycin
same,activity against certain kanamycin- and clindamycin-resistant bacteria,[26],susceptible to both compounds
same,No. of survivor/tested,[27]; 0.01 mg/kg,0/5
same,No. of survivor/tested,[27]; 0.04 mg/kg,0/5
same,ED50,"[27]; Staphylococcus aureus, 120 h, just before challenge, 5 days observation, read-out: PD50 (median protective dose)",0.13 mg/kg
same,IC50,B16-F10,5.2 ng/mL
same,IC50,P388,0.4 ng/mL
same,IC50,"P388/VCR; Mus musculus, P388/VCR, 72 h",0.4 ng/mL
same,cytotoxicity against VCR-sensitive versus resistant P388 cells,P388/VCR; P388 versus P388/VCR,same cytotoxicities against both VCR-sensitive and resistant P388 cells
same,IC50,Moser,0.85 ng/mL
same,IC50,HCT-116,0.42 ng/mL
same,IC50,[28],0.018 µg/mL
same,IC50,[29],9.2 µg/mL
same,IC50,[30],1.5 µg/mL
same,Body weight change on day 4,P388 leukemia; 0.5 mg/kg/day,0.0 g
same,MST (median survival time),P388 leukemia; 0.5 mg/kg/day,13.0 days
same,T/C,P388 leukemia; 0.5 mg/kg/day,130%
same,Body weight change on day 4,P388 leukemia; 1.0 mg/kg/day,-0.5 g
same,MST (median survival time),P388 leukemia; 1.0 mg/kg/day,13.5 days
same,T/C,P388 leukemia; 1.0 mg/kg/day,135%
same,maximum T/C value,P388 leukemia,135%
same,solubility,"Solubility; chloroform, ethyl acetate, methanol and ethanol",slightly soluble
same,solubility,"Solubility; dimethyl sulfoxide, dimethylformamide and dioxane",soluble
same,solubility,Solubility; water and n-hexane,insoluble
